The NIST ThermoML archive (doi:10.1021/je0340248)
Numbers after ± are expanded uncertainties.

Settings: 101.33 kPa, Liquid

| Compound | mass density (298.15 K) | speed of sound (298.15 K) | viscosity (298.15 K) | mass density (303.15 K) | mass density (308.15 K) | speed of sound (308.15 K) | viscosity (308.15 K) | mass density (313.15 K) |
| --- | --- | --- | --- | --- | --- | --- | --- | --- |
| CCCCOC(C)=O [butyl ethanoate] | 876.19 ± 0.94 kg/m3 | 1190 ± 2 m/s | 0.674 ± 0.012 mPa·s | 871.27 ± 0.96 kg/m3 | 865.43 ± 0.98 kg/m3 | 1150 ± 2 m/s | 0.594 ± 0.011 mPa·s | 860.48 ± 1 kg/m3 |
| OCCOCCO [diethylene glycol] | 1113.51 ± 0.32 kg/m3 | 1580 ± 2 m/s | 30.01 ± 0.42 mPa·s | 1109.56 ± 0.31 kg/m3 | 1106.22 ± 0.3 kg/m3 | 1550 ± 2 m/s | 16.97 ± 0.33 mPa·s | 1103.02 ± 0.3 kg/m3 |
| CCOC(C)=O [ethyl acetate] | 894.55 ± 0.88 kg/m3 | 1138 ± 2 m/s | 0.428 ± 0.008 mPa·s | 888.48 ± 0.9 kg/m3 | 882.5 ± 0.92 kg/m3 | 1095 ± 2 m/s | 0.387 ± 0.008 mPa·s | 875.97 ± 0.94 kg/m3 |
| COC(C)=O [methyl ethanoate] | 926.8 ± 0.78 kg/m3 | 1150 ± 2 m/s | 0.384 ± 0.008 mPa·s | 919.7 ± 0.8 kg/m3 | 915.22 ± 0.81 kg/m3 | 1103 ± 2 m/s | 0.351 ± 0.007 mPa·s | 908.33 ± 0.84 kg/m3 |
| OCCOCCOCCO [triethylene glycol] | 1119.59 ± 0.75 kg/m3 | 1612 ± 2 m/s | 34.4 ± 0.46 mPa·s | 1115.88 ± 0.69 kg/m3 | 1111.96 ± 0.63 kg/m3 | 1586 ± 2 m/s | 21.31 ± 0.35 mPa·s | 1109.53 ± 0.6 kg/m3 |
